{"source": "patent US10111874B2", "about": "“Combination therapies for treatment of cancer” (Araxes Pharma LLC, priority 2014, dated 2018)"}
{"target": "T1, KRAS G12C 1-169, his-tagged protein, GDP-loaded (Homo sapiens, UniProt P01116, G12C)", "T1 construct": "KRAS G12C 1-169, his-tagged protein, GDP-loaded", "T1 sequence (P01116 1-169 isoform P01116-2 G12C)": "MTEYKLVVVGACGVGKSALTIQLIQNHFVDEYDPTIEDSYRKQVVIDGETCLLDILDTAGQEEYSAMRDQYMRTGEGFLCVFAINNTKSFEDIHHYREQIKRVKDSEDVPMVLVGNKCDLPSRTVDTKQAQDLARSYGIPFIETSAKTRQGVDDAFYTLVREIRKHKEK", "experiment": "Biochemical assay: covalent binding to KRAS G12C analyzed by mass spectrometry; also: test concentration or dose not given here", "conditions": "compounds 1-47, measured at 24 h"}
{"smiles": "C=CC(=O)N1CCN(c2ncnc3cc(Cl)c(-c4ccc(Cl)cc4)cc23)CC1", "note": "[Compound I-4, 1-(4-(7-chloro-6-(4-chlorophenyl)quinazolin-4-yl)piperazin-1-yl)prop-2-en-1-one]", "Binding %": "++++ (++++indicates binding activity greater than 75%)"}
{"smiles": "C=CC(=O)N1CCN(c2ncnc3cc(Cl)c(-c4ccc(Cl)cc4)cc23)CC1C(N)=O", "note": "(centres unmarked) [Compound I-44, 1-acryloyl-4-(7-chloro-6-(4-chlorophenyl)quinazolin-4-yl)piperazin-2-carboxamide]", "Binding %": "+++ (+++indicates binding activity greater than 50% and up to 75%)"}
{"smiles": "C=CC(=O)N1CCN(c2ncnc3cc(Cl)c(N4CCOCC4)cc23)CC1", "note": "[Compound I-32, 1-(4-(7-chloro-6-morpholinoquinazolin-4-yl)piperazin-1-yl)prop-2-en-1-one]", "Binding %": "+ (+indicates binding activity from 5% to 25%)"}
{"smiles": "C=CC(=O)N1CCN(c2ncnc3cc(Cl)c(-c4ccc(Cl)cc4O)cc23)CC1", "note": "[Compound I-11, 1-(4-(7-chloro-6-(4-chloro-2-hydroxyphenyl)quinoazlin-4-yl)piperazin-1-yl)prop-2-en-1-one]", "Binding %": "++++ (++++indicates binding activity greater than 75%)"}
{"smiles": "C=CC(=O)N1CCN(c2ccnc3cc(Cl)c(-c4ccccc4Cl)cc23)CC1", "note": "[Compound I-27, 1-(4-(7-chloro-6-(2-chlorophenyl)quinolin-4-yl)piperazin-1-yl)prop-2-en-1-one]", "Binding %": "++ (++indicates binding activity greater than 25% and up to 50%)"}
{"target": "T1, KRAS G12C 1-169, his-tagged protein, GDP-loaded", "experiment": "Biochemical assay: covalent binding to KRAS G12C analyzed by mass spectrometry", "conditions": "compounds 48-246, measured at 2 h"}
{"smiles": "C=CC(=O)N1CCN(c2ncnc3cc(-c4c(C)ccc5[nH]ncc45)c(Cl)cc23)CC1", "note": "[Compound I-140, 1-(4-(6-chloro-7-(5-methyl-1H-indazol-4-yl)quinazolin-4-yl)piperazin-1-yl)prop-2-en-1-one]", "Binding %": "+++ (+++indicates binding activity greater than 50% and up to 75%)"}
{"smiles": "C=CC(=O)N1CCN(c2ncnc3cc(-c4ccc(F)cc4)c(Cl)cc23)CC1", "note": "[Compound I-83, 1-(4-(6-chloro-7-(4-fluorophenyl)quinazolin-4-yl)piperazin-1-yl)prop-2-en-1-one]", "Binding %": "++ (++indicates binding activity greater than 25% and up to 50%)"}
{"smiles": "C=CC(=O)N1CCN(c2ncnc3cc(-c4ccccc4C4(C)CC4)c(Cl)cc23)CC1", "note": "[Compound I-222, 1-(4-(6-chloro-7-(2-(1-methylcyclopropyl)phenyl)quinazolin-4-yl)piperazin-1-yl)prop-2-en-1-one]", "Binding %": "+++ (+++indicates binding activity greater than 50% and up to 75%)"}
{"smiles": "C=CC(=O)N1CCN(c2ncnc3cc(-c4cc(C(N)=O)ccc4F)c(Cl)cc23)CC1", "note": "[Compound I-155, 3-(4-(4-acryloylpiperazin-1-yl)-6-chloroquinazolin-7-yl)-4-fluorobenzamide]", "Binding %": "++ (++indicates binding activity greater than 25% and up to 50%)"}
{"smiles": "C=CC(=O)N1CCN(c2ncnc3cc(Cl)c(-c4ccc(Cl)cc4)cc23)C[C@H]1C(N)=O", "note": "[Compound I-54, (S)-1-acryloyl-4-(7-chloro-6-(4-chlorophenyl)quinazolin-4-yl)piperazine-2-carboxamide]", "Binding %": "++ (++indicates binding activity greater than 25% and up to 50%)"}
{"smiles": "C=CC(=O)N1CCN(c2ncnc3cc(-n4ccc(Cl)cc4=O)c(Cl)cc23)CC1", "note": "[Compound I-181, 1-(4-(4-acryloylpiperazin-1-yl)-6-chloroquinazolin-7-yl)-4-chloropyridin-2(1H)-one]", "Binding %": "+ (+indicates binding activity from 5% to 25%)"}
{"smiles": "C=CC(=O)N1CCN(c2nc(OC)nc3cc(-c4ccccc4)c(Cl)cc23)CC1", "note": "[Compound I-94, 1-(4-(6-chloro-2-methoxy-7-phenylquinazolin-4-yl)piperazin-1-yl)prop-2-en-1-one]", "Binding %": "++ (++indicates binding activity greater than 25% and up to 50%)"}
{"smiles": "C=CC(=O)N1CCN(c2ncnc3cc(-c4cccc5c4CCCN5)c(Cl)cc23)CC1", "note": "[Compound I-223, 1-(4-(6-chloro-7-(1,2,3,4-tetrahydroquinolin-5-yl)quinazolin-4-yl)piperazin-1-yl)prop-2-en-1-one]", "Binding %": "+ (+indicates binding activity from 5% to 25%)"}
{"smiles": "C=CC(=O)N1CCN(c2cnnc3cc(-c4c(O)cccc4F)c(Cl)cc23)CC1", "note": "[Compound I-231, 1-(4-(6-chloro-7-(2-fluoro-6-hydroxyphenyl)ciinolin-4-yl)piperazin-1-yl)prop-2-en-1-one]", "Binding %": "+++ (+++indicates binding activity greater than 50% and up to 75%)"}
{"smiles": "CN(C)C/C=C/C(=O)N1CCN(c2ncnc3c(F)c(-c4ccccc4F)c(-c4ccccc4F)cc23)CC1", "note": "[Compound I-230, (E)-4-(dimethylamino)-1-(4-(8-fluoro-6,7-bis(2-fluorophenyl)quinazolin-4-yl)piperazin-1-yl)but-2-en-1-one]", "Binding %": "+ (+indicates binding activity from 5% to 25%)"}
{"target": "T1, KRAS G12C 1-169, his-tagged protein, GDP-loaded", "experiment": "Biochemical assay: covalent binding to KRAS G12C analyzed by mass spectrometry", "conditions": "compounds 247-342, measured at 30 min"}
{"smiles": "C#CC1CN(c2ncnc3c(F)c(-c4ccccc4F)c(Cl)cc23)CCN1C(=O)C=C", "note": "(centres unmarked) [Compound I-252, 1-(4-(6-chloro-8-fluoro-7-(2-fluorophenyl)quinazolin-4-yl)-2-ethynylpiperazin-1-yl)prop-2-en-1-one]", "Binding %": "++++ (++++indicates binding activity greater than 75%)"}
{"smiles": "C=CC(=O)N1CCN(c2nc(-c3ccn[nH]3)nc3c(F)c(-c4c(C)ccc5[nH]ncc45)c(Cl)cc23)CC1", "note": "[Compound 309, 1-(4-(6-chloro-8-fluoro-7-(5-methyl-1H-indazol-4-yl)-2-(1H-pyrazol-5-yl)quinazolin-4-yl)piperazin-1-yl)prop-2-en-1-one]", "Binding %": "+++ (+++indicates binding activity greater than 50% and up to 75%)"}
{"smiles": "C=CC(=O)N1CCN(c2ncnc3c(Cl)c(-c4c(O)ccc5ccccc45)c(Cl)cc23)CC1", "note": "[Compound 303, 1-(4-(6,8-dichloro-7-(2-hydroxynaphthalen-1-yl)quinazolin-4-yl)piperazin-1-yl)prop-2-en-1-one]", "Binding %": "++ (++indicates binding activity greater than 25% and up to 50%)"}
{"smiles": "C=CC(=O)N1CCN(c2ncnc3c(F)c(-c4ccc(F)cc4C(F)(F)F)c(Cl)cc23)CC1", "note": "[Compound I-275, 1-(4-(6-chloro-8-fluoro-7-(4-fluoro-2-(trifluoromethyl)phenyl)quinazolin-4-yl)piperazin-1-yl)prop-2-en-1-one]", "Binding %": "++ (++indicates binding activity greater than 25% and up to 50%)"}
{"smiles": "C=CC(=O)N1CCN(c2ncnc3c(F)c(-c4c(O)cccc4Cl)c(Cl)cc23)CC1", "note": "[Compound I-289, 1-(4-(6-chloro-7-(2-chloro-6-hydroxyphenyl)-8-fluoroquinazolin-4-yl)piperazin-1-yl)prop-2-en-1-one]", "Binding %": "+++ (+++indicates binding activity greater than 50% and up to 75%)"}
{"smiles": "C=CC(=O)N1CCN(c2ncnc3cc(-c4c(O)cccc4F)c(Cl)c(C(F)(F)F)c23)CC1", "note": "[Compound 318, 1-(4-(6-chloro-7-(2-fluoro-6-hydroxyphenyl)-5-(trifluoromethyl)quinazolin-4-yl)piperazin-1-yl)prop-2-en-1-one]", "Binding %": "+ (+indicates binding activity from 5% to 25%)"}
{"target": "T1, KRAS G12C 1-169, his-tagged protein, GDP-loaded", "experiment": "Biochemical assay: covalent binding to KRAS G12C analyzed by mass spectrometry", "conditions": "determined at 24 hrs"}
{"smiles": "C=CC(=O)N1CCN(C(=O)c2cc(-c3ccc(Cl)cc3Cl)c[nH]2)CC1", "note": "[III-32, 1-(4-(4-(2,4-Dichlorophenyl)-1H-pyrrole-2-carbonyl)piperazin-1-yl)prop-2-en-1-one]", "Binding %": "++++ (++++indicates binding activity greater than 30%)"}
{"smiles": "C=CC(=O)N1CC(N2CCN(C(=O)CNc3cc(Cl)c(Cl)cc3C(F)(F)F)CC2)C1", "note": "[II-26, 1-(3-(4-(2-(4,5-dichloro-2-(trifluoromethyl)-phenylamino)acetyl)-piperazin-1-yl)azetidin-1-yl)prop-2-en-1-one]", "Binding %": "+ (+indicates binding activity from 5% to 15%)"}
